Laboratory results reported in patent US12213482B2, “Fungicide enhancers effective for treating plants infected with fungal pathogens” (Board of Regents, The University of Texas System, priority 2015, dated 2025).

Legend:
Experiment in all cases: Antifungal susceptibility disk test, fungicide disk plus apyrase inhibitor in plate
Format in all cases: cell-based
Verticillium dahliae = details: inhibitor 65 μM, 30° C., 12 days; for inhibitory effect on the growth of V. dahliae compared to copper octanoate alone: combined with copper octanoate (285 mM) disk, FIG. 6A; for inhibitory effect on the growth of V. dahliae compared to propiconazole alone: combined with propiconazole (418 mM) disk, FIG. 6C
Description: (§1) Copper Octanoate, 6B. Propiconazole, and 6C. Myclobutanil against the pathogenic fungi Verticillium dahliae. […] The equivalent volume of dimethylsulphoxide (DMSO) was added as a control. The studies were repeated two times with similar results. Error bars indicate standard deviations (n=5). The significances of the potency of fungicides are indicated: *** (Student's t-test, P<0.00)); **(Student's t-test, P<0.01) or *(Student's t test, P<0.05). The plant pathogenic fungal strains Botrytis cinerea, Colletotrichum graminicola, Fusarium oxysporum, Sclerotiana sclerotiorum and Verticillium dahliae were obtained from the Institute for Plant Genomics & Biotechnology, Texas A & M University, USA Potato dextrose agar (PDA, Sigma-Aldrich) was routinely used for the growth of different pathogenic fungal strain. Ectophosphatase inhibitors NGXT191 (AI.1), AI.10, NGXT1913 (AI.13), and AI. 15 were used dal this study. The fungicides copper octanoate (C16H30CuO4), myclobutanil (C15H17ClN4) and propiconazole (C15H17Cl2N3O2) were used. The concentrations of these compounds used were copper octanoate (285 mM), myclobutanil (53.6 mM) and propiconazole (418 mM). Standard antifungal susceptibility disk tests were performed to determine any potentiating effect of ectophosphatase inhibitors on the growth of pathogenic fungus. The pathogenic fungus wild-type strains were plated on PDA medium with paper-disks containing, fungicides at the center of the plate. […] Plates were incubated at 30° C. for 7-days (C. graminicola and S. sclerotiorum) or 12-days (B. cinerea, F. oxysporum and V. dahliae), depending on the growth rate of the fungi. Plates were photographed, and the zone of fungal growth inhibition was measured by using IMAGE J™ software (NIH, USA). All the tests were performed with 5 replicates. The studies were performed two times. Results were analyzed for significance using Student T-tests.

[1] = test system: Colletotrichum graminicola; details: inhibitor 65 μM, 30° C., 7 days; for inhibitory effect on the growth of C. graminicola compared to copper octanoate alone: combined with copper octanoate (285 mM) disk, FIG. 3A; for inhibitory effect on the growth of C. graminicola compared to myclobutanil alone: combined with myclobutanil (53.6 mM) disk, FIG. 3B
Description: as §1, with “3B.” for “6B.”, “3C.” for “6C.”, “Colletotrichum graminicola.” for “Verticillium dahliae.”, “P<0.001;” for “P<0.00));”, “t-test,” for “t test,”

[2] = test system: Fusarium oxysporum f.sp Cubense; details: inhibitor 65 μM, 30° C., 12 days; for inhibitory effect on the growth of F. oxysporum compared to copper octanoate alone: combined with copper octanoate (285 mM) disk, FIG. 4A
Description: as §1, with “4B.” for “6B.”, “4C.” for “6C.”, “Fusarium oxysporum.” for “Verticillium dahliae.”, “P<0.001);” for “P<0.00));”, “t-test,” for “t test,”

Cc1cccc(NS(=O)(=O)c2ccc(-c3ccccc3)cc2)c1 [AI.1, N-(m-tolyl)-[1,1′-biphenyl]-4-sulfonamide]
significantly greater inhibitory effect: inhibitory effect on the growth of V. dahliae compared to copper octanoate alone (Verticillium dahliae) | inhibitory effect on the growth of C. graminicola compared to copper octanoate alone [1] | inhibitory effect on the growth of C. graminicola compared to myclobutanil alone [1] | inhibitory effect on the growth of F. oxysporum compared to copper octanoate alone [2]

CCCCCCCSC(=O)c1cc2ccccc2oc1=O [AI.10, S-heptyl 2-oxo-2H-chromene-3-carbothioate]
significantly greater inhibitory effect: inhibitory effect on the growth of V. dahliae compared to copper octanoate alone (Verticillium dahliae) | inhibitory effect on the growth of V. dahliae compared to propiconazole alone (Verticillium dahliae) | inhibitory effect on the growth of C. graminicola compared to myclobutanil alone [1] | inhibitory effect on the growth of F. oxysporum compared to myclobutanil alone ([2]; combined with myclobutanil (53.6 mM) disk, FIG. 4B) | inhibitory effect on the growth of F. oxysporum compared to propiconazole alone ([2]; combined with propiconazole (418 mM) disk, FIG. 4C)

O=C(Nc1cccc([N+](=O)[O-])c1)c1cccc(S(=O)(=O)Nc2ccc(Br)cc2)c1 [AI.13, 3-(N-(4-bromophenyl)sulfamoyl)-N-(3-nitrophenyl)benzamide]
significantly greater inhibitory effect: inhibitory effect on the growth of V. dahliae compared to copper octanoate alone (Verticillium dahliae) | inhibitory effect on the growth of C. graminicola compared to copper octanoate alone [1] | inhibitory effect on the growth of C. graminicola compared to myclobutanil alone [1] | inhibitory effect on the growth of F. oxysporum compared to copper octanoate alone [2]

C/C(=N\NC(=O)c1cccc(C)c1)c1ccc2ccccc2c1 [AI.15, (E)-3-methyl-N′-(1-(naphthalen-2-yl)ethylidene)benzohydrazide]
significantly greater inhibitory effect: inhibitory effect on the growth of V. dahliae compared to copper octanoate alone (Verticillium dahliae) | inhibitory effect on the growth of V. dahliae compared to myclobutanil alone (Verticillium dahliae; combined with myclobutanil (53.6 mM) disk, FIG. 6B) | inhibitory effect on the growth of V. dahliae compared to propiconazole alone (Verticillium dahliae) | inhibitory effect on the growth of C. graminicola compared to myclobutanil alone [1]
